Source: patent publication US11420944B2, “Voltage-dependent t-type calcium channel blocker” (Nippon Chemiphar Co., Ltd., priority 2016, dated 2022)
Where two headings read alike, the source gives them in different places.

What was measured:
human Cav3.2 channels [1] = target: T1, human Cav3.2 channels (Homo sapiens, UniProt O95180); experiment: Intracellular calcium concentration measurement (Fluo-4 AM) in stable cells expressing human Cav3.2 channels, buffer A / buffer B; type: cell-based
T1 construct: expressed in transfected cells; host or cells: HEK293 cells (ATCC No. CRL-1573), plasmid pcDNA3.1(+)
Outline: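 State-dependent Cav3.2 inhibition compared in two buffers differing in potassium equilibrium potential (−92 vs −110 mV). Stable HEK293 line, Fluo-4 dye; compound 15 min, room temperature, dark, then KCl addition (83.8 or 91.8 mM) triggers calcium influx read 10 s; IC50 from peak increment over baseline.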

CYP3A4 = target: T2, CYP3A4 (Homo sapiens, UniProt P08684); experiment: Evaluation of CYP3A4 activity inhibitory action; type: in vitro ADME; conditions: Human CYP3A4BR EasyCYP Bactosomes, 7-Benzyloxy-4-(trifluoromethyl)-coumarin
T2 construct: purchased Cypex, Ltd; host or cells: E. coli membranes (Bactosomes)
Description: Evaluation of CYP3A4 Activity Inhibitory Action
To a 50 mM potassium phosphate buffer solution (pH 7.4), 5 nM Human CYP3A4BR EasyCYP Bactosomes (Cypex, Ltd.), 50 μM 7-Benzyloxy-4-(trifluoromethyl)-coumarin, cofactor mix (0.0081 mM β-NADP^+, 0.4 mM G-6-P, 0.4 mM MgCl2, and 0.2 U/mL G-6-P DH(Y)), and 0.01% Pluronic F-127 were added, and the mixture was incubated for 45 minutes at 37° C. The reaction was initiated by adding the cofactor mix. After the incubation, 0.5 M Tris base/acetonitrile (20:80) was added thereto as a reaction terminating liquid, and the resulting mixture was stirred. Subsequently, the fluorescence intensity (excitation: 405 nm, emission: 535 nm) was measured. The reaction was carried out in duplicate. The results are presented as the inhibition rate at 10 μM of the test compound.

human Cav3.2 channels [2] = target: T1, human Cav3.2 channels; experiment: Electrophysiological evaluation, whole-cell patch-clamp with automatic patch-clamp system; type: cell-based; conditions: 0.3 μM, holding potential −80 mV; read-out: Cav3.2 channel current inhibition ratio at 0.3 μM of test compound (holding potential −80 mV)
Description: Electrophysiological Evaluation
Stable cell line expressing human Cav3.2 channels, which had been produced by Test method (1) of Example 140, was seeded in a 10-cm dish using DMEM medium containing 10% FBS, and the cells were cultured for 24 hours or longer under the conditions of 37° C. and 5% CO2. The cells were detached using Accutase and were used after being suspended in ice-cold extracellular solution. The Cav3.2 channel current was measured by the Whole-cell patch-clamp method using an automatic patch-clamp system (Port-a-Patch; Nanion Technologies GmbH, EPC-10; HEKA Elektronik GmbH, Patchmaster; HEKA Elektronik GmbH) and buffers described below. Measurement of the Cav3.2 channel current was carried out at room temperature, and the measurement conditions were set as follows: holding potential: −80 mV, depolarization potential: −20 mV, depolarization time: 100 msec, and depolarization frequency: 10 sec. The Cav3.2 channel current was defined as the peak value of the inward current observed when depolarization occurred at −20 mV.
For a test compound, a DMSO solution was diluted 1,000 times with extracellular solution, and thus a solution having an intended concentration was produced. The test compound was applied using an extracellular perfusion system (Nanion Technologies GmbH) until the Cav3.2 channel current was stabilized, and five concentrations at the maximum from the low-concentration side were cumulatively applied. The inhibition ratio of the test compound was calculated from the current value immediately before the application of the test compound and the change rate of the Cav3.2 channel current after the application of the test compound (conditions for a holding potential of −80 mV: test compound concentration of 0.3 μM, conditions for a holding potential of −100 mV: test compound concentration of 3 μM).
Extracellular solution: 135 mM NaCl, 4 mM KCl, 1 mM MgCl2, 5 mM CaCl2, 5 mM D-Glucose, and 10 mM HEPES, pH 7.4
Internal solution for electrode: 10 mM NaCl, 10 mM HEPES, 50 mM CsCl, 60 mM CsF, and 20 mM EGTA, pH 7.2

[3] = Tables 2 to 6, buffer A, equilibrium potential of potassium −92 mV, read-out: Inhibitory action of buffer A (inactivated state)

T1 sequence (O95180 whole entry): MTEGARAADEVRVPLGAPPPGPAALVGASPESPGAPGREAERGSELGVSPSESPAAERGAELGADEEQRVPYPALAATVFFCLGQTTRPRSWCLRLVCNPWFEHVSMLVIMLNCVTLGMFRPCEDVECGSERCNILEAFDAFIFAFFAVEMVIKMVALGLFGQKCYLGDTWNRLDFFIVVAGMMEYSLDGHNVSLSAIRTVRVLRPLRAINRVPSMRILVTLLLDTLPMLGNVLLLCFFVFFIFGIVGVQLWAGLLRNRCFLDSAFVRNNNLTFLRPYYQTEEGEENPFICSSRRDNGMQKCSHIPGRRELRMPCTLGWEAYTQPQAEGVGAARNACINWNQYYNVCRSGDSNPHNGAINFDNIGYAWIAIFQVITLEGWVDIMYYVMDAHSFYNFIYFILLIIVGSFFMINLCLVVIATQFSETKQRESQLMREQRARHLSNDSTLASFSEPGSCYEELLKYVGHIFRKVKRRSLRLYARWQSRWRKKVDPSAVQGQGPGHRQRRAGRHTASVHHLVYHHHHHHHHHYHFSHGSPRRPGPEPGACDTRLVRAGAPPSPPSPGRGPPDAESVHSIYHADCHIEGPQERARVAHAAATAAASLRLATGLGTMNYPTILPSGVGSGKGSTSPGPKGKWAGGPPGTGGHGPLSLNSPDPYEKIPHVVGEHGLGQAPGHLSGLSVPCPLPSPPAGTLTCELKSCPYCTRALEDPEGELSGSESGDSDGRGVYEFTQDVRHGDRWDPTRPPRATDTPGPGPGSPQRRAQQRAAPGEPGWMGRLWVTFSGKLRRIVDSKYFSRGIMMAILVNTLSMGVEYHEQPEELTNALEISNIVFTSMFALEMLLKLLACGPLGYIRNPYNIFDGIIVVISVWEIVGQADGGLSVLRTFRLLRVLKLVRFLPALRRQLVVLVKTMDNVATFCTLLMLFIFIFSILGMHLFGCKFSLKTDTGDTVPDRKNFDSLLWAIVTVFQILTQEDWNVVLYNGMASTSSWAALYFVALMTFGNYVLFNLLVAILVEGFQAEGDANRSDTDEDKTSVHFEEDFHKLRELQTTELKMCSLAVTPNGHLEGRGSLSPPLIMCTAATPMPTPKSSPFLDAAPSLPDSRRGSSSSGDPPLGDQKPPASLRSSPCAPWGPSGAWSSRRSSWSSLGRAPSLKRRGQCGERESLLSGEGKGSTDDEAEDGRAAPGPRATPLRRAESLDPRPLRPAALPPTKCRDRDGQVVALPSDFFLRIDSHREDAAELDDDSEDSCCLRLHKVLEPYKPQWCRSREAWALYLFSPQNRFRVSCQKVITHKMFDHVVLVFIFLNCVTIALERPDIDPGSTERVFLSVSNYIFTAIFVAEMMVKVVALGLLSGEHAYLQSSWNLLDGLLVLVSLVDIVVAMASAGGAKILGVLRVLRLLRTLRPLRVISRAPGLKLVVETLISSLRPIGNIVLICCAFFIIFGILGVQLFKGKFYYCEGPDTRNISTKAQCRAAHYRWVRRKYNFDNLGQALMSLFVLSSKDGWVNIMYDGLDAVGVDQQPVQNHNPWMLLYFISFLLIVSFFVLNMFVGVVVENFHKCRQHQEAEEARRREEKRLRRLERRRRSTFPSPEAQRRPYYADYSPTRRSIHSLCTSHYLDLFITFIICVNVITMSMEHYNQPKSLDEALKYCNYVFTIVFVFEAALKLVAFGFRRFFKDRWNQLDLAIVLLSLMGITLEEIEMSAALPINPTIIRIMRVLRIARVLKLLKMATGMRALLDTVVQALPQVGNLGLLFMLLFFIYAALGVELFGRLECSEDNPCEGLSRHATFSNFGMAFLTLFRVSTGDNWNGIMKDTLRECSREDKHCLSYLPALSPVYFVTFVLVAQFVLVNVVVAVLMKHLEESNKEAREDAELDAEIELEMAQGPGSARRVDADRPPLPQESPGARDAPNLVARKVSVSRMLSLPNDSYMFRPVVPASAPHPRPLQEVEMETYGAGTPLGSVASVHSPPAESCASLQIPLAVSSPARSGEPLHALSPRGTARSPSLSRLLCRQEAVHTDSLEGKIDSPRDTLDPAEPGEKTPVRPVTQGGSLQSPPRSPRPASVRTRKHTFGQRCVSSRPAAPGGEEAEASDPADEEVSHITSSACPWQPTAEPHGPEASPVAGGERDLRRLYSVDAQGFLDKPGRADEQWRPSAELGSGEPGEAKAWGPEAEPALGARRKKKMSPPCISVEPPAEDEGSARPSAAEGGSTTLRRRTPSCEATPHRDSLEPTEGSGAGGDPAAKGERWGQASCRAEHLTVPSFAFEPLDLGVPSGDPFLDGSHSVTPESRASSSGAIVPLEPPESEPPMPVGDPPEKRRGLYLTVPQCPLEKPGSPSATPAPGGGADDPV
T2 sequence (P08684 whole entry): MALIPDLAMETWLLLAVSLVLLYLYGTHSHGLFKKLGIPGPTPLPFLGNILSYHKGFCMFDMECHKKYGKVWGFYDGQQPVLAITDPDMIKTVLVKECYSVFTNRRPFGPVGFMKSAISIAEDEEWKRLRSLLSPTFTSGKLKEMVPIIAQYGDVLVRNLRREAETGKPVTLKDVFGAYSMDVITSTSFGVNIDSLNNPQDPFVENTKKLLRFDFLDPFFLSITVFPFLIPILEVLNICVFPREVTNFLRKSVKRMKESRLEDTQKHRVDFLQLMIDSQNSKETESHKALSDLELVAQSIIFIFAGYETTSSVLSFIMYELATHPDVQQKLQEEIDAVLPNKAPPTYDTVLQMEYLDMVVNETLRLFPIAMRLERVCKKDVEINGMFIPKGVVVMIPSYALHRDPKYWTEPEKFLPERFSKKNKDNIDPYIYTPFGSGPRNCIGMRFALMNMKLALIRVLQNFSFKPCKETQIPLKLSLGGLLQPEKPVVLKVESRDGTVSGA

Row | Compound | IC50 (human Cav3.2 channels [1]; [3]) [nM] | CYP3A4 activity inhibition ratio at 10 μM of test compound (CYP3A4) [%] | inhibition at 0.3 µM (human Cav3.2 channels [2]) [%] | IC50 (human Cav3.2 channels [1]; Table 1, buffer A, equilibrium potential of potassium −92 mV, read-out: Inhibitory action of buffer A (inactivated state)) [nM] | IC50 (human Cav3.2 channels [1]; Table 1, buffer B, equilibrium potential of potassium −110 mV, read-out: Inhibitory action of buffer B (resting state or closed state)) [nM]
1 | C[C@@H](NC(=O)C1CC1c1c[nH]c2ccccc12)c1ccc(OCC(F)(F)F)s1 (single isomer, unassigned) [Example 21A] | 100 to 1000 | 16.9 |  |  | 
2 | C[C@@H](NC(=O)C1CC1c1nc2cc(Cl)ccc2[nH]1)c1cnc(OCC(F)(F)F)s1 (single isomer, unassigned) [Example 64A] | ≤ 100 | 4.4 | 52 |  | 
3 | CC(C(=O)Nc1ccccc1)N1CC[C@@H](C(=O)N[C@H](C)c2ccc(OCC(F)(F)F)s2)C1 (stereo partly drawn) [Example 24, (3R)-1-(1-oxo-1-(phenylamino)propan-2-yl)-N—((R)-1-(5-(2,2,2-trifluoroethoxy)thiophen-2-yl)ethyl)pyrrolidine-3-carboxamide] | 100 to 1000 | 51.1 |  |  | 
4 | C[C@@H](NC(=O)C1CC1c1nccn1C)c1ccc(OCC(F)(F)F)s1 (mixture of isomers) [Example 20, Trans-2-(1-methyl-1H-imidazol-2-yl)-N—((R)-1-(5-(2,2,2-trifluoroethoxy)thiophen-2-yl)ethyl)cyclopropane-1-carboxamide] | 1000 to 10000 | 27.4 |  |  | 
5 | C[C@@H](NC(=O)C1CC1c1ccc2ccccc2n1)c1ccc(OCC(F)(F)F)s1 (stereo partly drawn) [Example 34, Trans-2-(quinolin-2-yl)-N—((R)-1-(5-(2,2,2-trifluoroethoxy)thiophen-2-yl)ethyl)cyclopropane-1-carboxamide] |  | 19.6 |  |  | 
6 | C[C@@H](NC(=O)[C@@H]1CCN(c2nc3ccccc3[nH]2)C1)c1ccc(OCC(F)(F)F)s1 [Example 12] |  | 84.4 |  | 100 to 1000 | 1000 to 10000
7 | C[C@@H](NC(=O)[C@@H]1CCN(CC(=O)Nc2ccccc2)C1)c1ccc(OCC(F)(F)F)s1.Cl [Example 17] |  | 31.8 |  |  | 
8 | CCn1c(C2CC2C(=O)N[C@H](C)c2cnc(OCC(F)(F)F)s2)nc2ccccc21 (stereo partly drawn) [Example 57, Trans-2-(1-ethyl-1H-benzo[d]imidazol-2-yl)-N—((R)-1-(2-(2,2,2-trifluoroethoxy)thiazol-5-yl)ethyl)cyclopropane-1-carboxamide] |  | −1.4 |  |  | 
9 | CCn1c(C2CC2C(=O)N[C@H](C)c2ccc(OCC(F)(F)F)s2)nc2ccccc21 (single isomer, unassigned) [Example 54] | ≤ 100 | −1.1 |  |  | 
10 | C[C@@H](NC(=O)C1CC1c1nc(-c2ccccc2)c[nH]1)c1ccc(OCC(F)(F)F)s1 (single isomer, unassigned) [Example 31A] | 100 to 1000 | 7.0 |  |  | 
11 | C[C@@H](NC(=O)C1CC1c1c[nH]c2ccccc12)c1ccc(OCC(F)(F)F)s1 (single isomer, unassigned) [Example 21B] | 100 to 1000 | 23.3 |  |  | 
12 | C[C@@H](NC(=O)Cc1ccc(C2CC2)cc1)c1ccc(OCC(F)(F)F)cn1 [TTA-A2, reference compound] |  | 55.7 |  |  | 

Other lines, results leading:

Row | IC50 (human Cav3.2 channels [1]; [3]) [nM] | CYP3A4 activity inhibition ratio at 10 μM of test compound (CYP3A4) [%] | inhibition at 0.3 µM (human Cav3.2 channels [2]) [%] | IC50 (human Cav3.2 channels [1]; Table 1, buffer A, equilibrium potential of potassium −92 mV, read-out: Inhibitory action of buffer A (inactivated state)) [nM] | IC50 (human Cav3.2 channels [1]; Table 1, buffer B, equilibrium potential of potassium −110 mV, read-out: Inhibitory action of buffer B (resting state or closed state)) [nM] | Compound
13 | 100 to 1000 | 4.5 | 53 |  |  | C[C@@H](NC(=O)C1CC1c1nc2ccccc2[nH]1)c1ccc(C(=O)N2CCCCC2)s1 (stereo in doubt) [Example 61, Trans-2-(1H-benzo[d]imidazol-2-yl)-N—((R)-1-(5-(piperidine-1-carbonyl)thiophen-2-yl)ethyl)cyclopropane-1-carboxamide]
14 | 100 to 1000 | 53.5 |  |  |  | C[C@@H](NC(=O)[C@H]1C[C@@H]1c1nc2ccccc2[nH]1)c1ccc2cc[nH]c2c1 [Example 58, (1S,2S)—N—((R)-1-(1H-indol-6-yl)ethyl)-2-(1H-benzo[d]imidazol-2-yl)cyclopropane-1-carboxamide]
15 | ≤ 100 | 25.0 |  |  |  | C[C@@H](NC(=O)[C@H]1C[C@@H]1c1nc2cc(F)ccc2[nH]1)c1cc2cc(F)ccc2o1 [Example 125, (1S,2S)-2-(5-fluoro-1H-benzo[d]imidazol-2-yl)-N—((R)-1-(5-fluorobenzofuran-2-yl)ethyl)cyclopropane-1-carboxamide]
16 |  | 8.7 |  |  |  | C[C@@H](NC(=O)C1CC1c1nc2ccccc2[nH]1)c1ccc(C(=O)OC(C)(C)C)s1 (stereo partly drawn) [Example 25, Trans-5-((1R)-1-(2-(1H-benzo[d]imidazol-2-yl)cyclopropane-1-carboxamido)ethyl)thiophene-2-carboxylic acid tert-butyl ester]
17 | ≤ 100 | 11.7 |  |  |  | C[C@@H](NC(=O)[C@H]1C[C@@H]1c1nc2ccccc2[nH]1)c1cc2ccc(C(F)(F)F)cc2o1 [Example 123, (1S,2S)-2-(1H-benzo[d]imidazol-2-yl)-N—((R)-1-(6-(trifluoromethyl)benzofuran-2-yl)ethyl)cyclopropane-1-carboxamide]
18 | 100 to 1000 | 23.3 |  |  |  | CCN(CC)C(=O)c1ccc([C@@H](C)NC(=O)C2CC2c2nc3ccccc3[nH]2)s1 (stereo in doubt) [Example 32, Trans-5-((1R)-1-(2-(1H-benzo[d]imidazol-2-yl)cyclopropane-1-carboxamido)ethyl)-N,N-diethylthiophene-2-carboxamide]
19 | ≤ 100 | 28.6 |  |  |  | CC(C)[C@@H](NC(=O)[C@H]1C[C@@H]1c1nc2ccccc2[nH]1)c1cc2ccc(F)cc2o1 [Example 124, (1S,2S)-2-(1H-benzo[d]imidazol-2-yl)-N—((R)-1-(6-fluorobenzofuran-2-yl)-2-methylpropyl)cyclopropane-1-carboxamide]
20 | 100 to 1000 | −12.8 |  |  |  | C[C@@H](NC(=O)[C@H]1C[C@@H]1c1nc2ccccc2[nH]1)c1ccc(C(=O)N2CCCC2)s1 [Example 33, Trans-2-(1H-benzo[d]imidazol-2-yl)-N—((R)-1-(5-(pyrrolidine-1-carbonyl)thiophen-2-yl)ethyl)cyclopropane-1-carboxamide]
21 |  | 3.0 |  |  |  | C[C@@H](NC(=O)C1CC1c1nc2cc(Cl)ccc2[nH]1)c1ccc(OCC(F)(F)F)s1 (stereo partly drawn) [Example 53, Trans-2-(5-chloro-1H-benzo[d]imidazol-2-yl)-N—((R)-1-(5-(2,2,2-trifluoroethoxy)thiophen-2-yl)ethyl)cyclopropane-1-carboxamide]
22 | 100 to 1000 | 24.1 |  |  |  | C[C@@H](NC(=O)[C@H]1C[C@@H]1c1nc2ccccc2[nH]1)c1cc2cc(C(F)(F)F)ccc2o1 [Example 109, (1S,2S)-2-(1H-benzo[d]imidazol-2-yl)-N—((R)-1-(5-(trifluoromethyl)benzofuran-2-yl)ethyl)cyclopropane-1-carboxamide]
23 | 100 to 1000 | 56.0 |  |  |  | C[C@H](c1cc2ccc(F)cc2o1)N(C)C(=O)[C@H]1C[C@@H]1c1nc2ccccc2[nH]1 [Example 129, (1S,2S)-2-(1H-benzo[d]imidazol-2-yl)-N—((R)-1-(6-fluorobenzofuran-2-yl)ethyl)-N-methylcyclopropane-1-carboxamide]
